Assay results: article PMC3399817 (PLoS ONE, 2012)

What was measured:
Assay in all cases: KINOMEscan
Type in all cases: binding
[1] = target: T1, ABL1(F317L)-nonphosphorylated (Homo sapiens, UniProt P00519, F317L); conditions: 1 uM
T1 construct: purchased Ambit KINOMEscan (DiscoverX)
Procedure, shortened: (§1)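 First-pass selectivity screen: compound at 1 μM, endpoint is whether substrate binding to each kinase is suppressed.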

[2] = target: T2, BLK (Homo sapiens, UniProt P51451); conditions: 1 uM
T2 construct: purchased Ambit KINOMEscan (DiscoverX)
Procedure, shortened: as §1

[3] = target: T3, CAMK2B (Homo sapiens, UniProt Q13554); conditions: 1 uM
T3 construct: purchased Ambit KINOMEscan (DiscoverX)
Procedure, shortened: as §1

[4] = target: T4, CAMK2G (Homo sapiens, UniProt Q13555); conditions: 1 uM
T4 construct: purchased Ambit KINOMEscan (DiscoverX)
Procedure, shortened: as §1

[5] = target: T5, CDK4-cyclinD1 (Homo sapiens, UniProt P11802); conditions: CDK4-cyclinD1, 1 uM
T5 construct: purchased Ambit KINOMEscan (DiscoverX)
Procedure, shortened: as §1

[6] = target: T6, CDK5 (Homo sapiens, UniProt Q00535); conditions: CDK5, 1 uM
T6 construct: purchased Ambit KINOMEscan (DiscoverX)
Procedure, shortened: as §1

[7] = target: T7, CDKL1 (Homo sapiens, UniProt Q00532); conditions: CDKL1, 1 uM
T7 construct: purchased Ambit KINOMEscan (DiscoverX)
Procedure, shortened: as §1

[8] = target: T8, DCAMKL2 (Homo sapiens, UniProt Q8N568); conditions: DCAMKL2, 1 uM
T8 construct: purchased Ambit KINOMEscan (DiscoverX)
Procedure, shortened: as §1

[9] = target: T9, EGFR(L858R,T790M) (Homo sapiens, UniProt P00533, L858R/T790M); conditions: 1 uM
T9 construct: purchased Ambit KINOMEscan (DiscoverX)
Procedure, shortened: as §1

[10] = target: T10, EGFR(T790M) (Homo sapiens, UniProt P00533, T790M); conditions: 1 uM
T10 construct: purchased Ambit KINOMEscan (DiscoverX)
Procedure, shortened: as §1

[11] = target: T11, EPHA7 (Homo sapiens, UniProt Q15375); conditions: EPHA7, 1 uM
T11 construct: purchased Ambit KINOMEscan (DiscoverX)
Procedure, shortened: as §1

[12] = target: T12, FLT3 (Homo sapiens, UniProt P36888); conditions: FLT3, 1 uM
T12 construct: purchased Ambit KINOMEscan (DiscoverX)
Procedure, shortened: as §1

[13] = target: T13, FLT3(D835Y) (Homo sapiens, UniProt P36888, D835Y); conditions: 1 uM
T13 construct: purchased Ambit KINOMEscan (DiscoverX)
Procedure, shortened: as §1

[14] = target: T14, FLT3(R834Q) (Homo sapiens, UniProt P36888, R834Q); conditions: 1 uM
T14 construct: purchased Ambit KINOMEscan (DiscoverX)
Procedure, shortened: as §1

[15] = target: T15, KIT(A829P) (Homo sapiens, UniProt P10721, A829P); conditions: 1 uM
T15 construct: purchased Ambit KINOMEscan (DiscoverX)
Procedure, shortened: as §1

[16] = target: T16, KIT(D816H) (Homo sapiens, UniProt P10721, D816H); conditions: 1 uM
T16 construct: purchased Ambit KINOMEscan (DiscoverX)
Procedure, shortened: as §1

[17] = target: T17, LRRK2 (Homo sapiens, UniProt Q5S007); conditions: LRRK2, 1 uM
T17 construct: purchased Ambit KINOMEscan (DiscoverX)
Procedure, shortened: as §1

[18] = target: T18, MEK5 (Homo sapiens, UniProt Q13163); conditions: MEK5, 1 uM
T18 construct: purchased Ambit KINOMEscan (DiscoverX)
Procedure, shortened: as §1

[19] = target: T19, MET(M1250T) (Homo sapiens, UniProt P08581, M1250T); conditions: 1 uM
T19 construct: purchased Ambit KINOMEscan (DiscoverX)
Procedure, shortened: as §1

[20] = target: T20, MST1R (Homo sapiens, UniProt Q04912); conditions: 1 uM
T20 construct: purchased Ambit KINOMEscan (DiscoverX)
Procedure, shortened: as §1

[21] = target: T21, MTOR (Homo sapiens, UniProt P42345); conditions: 1 uM
T21 construct: purchased Ambit KINOMEscan (DiscoverX)
Procedure, shortened: as §1

[22] = target: T22, MYLK4 (Homo sapiens, UniProt Q86YV6); conditions: MYLK4, 1 uM
T22 construct: purchased Ambit KINOMEscan (DiscoverX)
Procedure, shortened: as §1

[23] = target: T23, NEK11 (Homo sapiens, UniProt Q8NG66); conditions: NEK11, 1 uM
T23 construct: purchased Ambit KINOMEscan (DiscoverX)
Procedure, shortened: as §1

[24] = target: T24, NEK3 (Homo sapiens, UniProt P51956); conditions: NEK3, 1 uM
T24 construct: purchased Ambit KINOMEscan (DiscoverX)
Procedure, shortened: as §1

[25] = target: T25, NEK4 (Homo sapiens, UniProt P51957); conditions: NEK4, 1 uM
T25 construct: purchased Ambit KINOMEscan (DiscoverX)
Procedure, shortened: as §1

[26] = target: T26, PFCDPK1(P.falciparum) (Plasmodium falciparum, UniProt P62344); conditions: 1 uM
T26 construct: purchased Ambit KINOMEscan (DiscoverX)
Procedure, shortened: as §1

[27] = target: T27, PIK3CA(H1047L) (Homo sapiens, UniProt P42336, H1047L); conditions: 1 uM
T27 construct: purchased Ambit KINOMEscan (DiscoverX)
Procedure, shortened: as §1

[28] = target: T28, PIP5K1C (Homo sapiens, UniProt O60331); conditions: 1 uM
T28 construct: purchased Ambit KINOMEscan (DiscoverX)
Procedure, shortened: as §1

[29] = target: T29, PIP5K2C (Homo sapiens, UniProt Q8TBX8); conditions: 1 uM
T29 construct: purchased Ambit KINOMEscan (DiscoverX)
Procedure, shortened: as §1

[30] = target: T30, PRKCI (Homo sapiens, UniProt P41743); conditions: 1 uM
T30 construct: purchased Ambit KINOMEscan (DiscoverX)
Procedure, shortened: as §1

[31] = target: T31, RET(M918T) (Homo sapiens, UniProt P07949, M918T); conditions: 1 uM
T31 construct: purchased Ambit KINOMEscan (DiscoverX)
Procedure, shortened: as §1

[32] = target: T32, RPS6KA3(Kin.Dom.1-N-terminal) (Homo sapiens, UniProt P51812); conditions: 1 uM
T32 construct: RPS6KA3(Kin.Dom.1-N-terminal); purchased Ambit KINOMEscan (DiscoverX)
Procedure, shortened: as §1

[33] = target: T33, RPS6KA6(Kin.Dom.1-N-terminal) (Homo sapiens, UniProt Q9UK32); conditions: 1 uM
T33 construct: RPS6KA6(Kin.Dom.1-N-terminal); purchased Ambit KINOMEscan (DiscoverX)
Procedure, shortened: as §1

[34] = target: T34, S6K1 (Homo sapiens, UniProt P23443); conditions: S6K1, 1 uM
T34 construct: purchased Ambit KINOMEscan (DiscoverX)
Procedure, shortened: as §1

[35] = target: T35, TLK2 (Homo sapiens, UniProt Q86UE8); conditions: TLK2, 1 uM
T35 construct: purchased Ambit KINOMEscan (DiscoverX)
Procedure, shortened: as §1

[36] = target: T36, TRKA (Homo sapiens, UniProt P04629); conditions: 1 uM
T36 construct: purchased Ambit KINOMEscan (DiscoverX)
Procedure, shortened: as §1

[37] = target: T37, YANK1 (Homo sapiens, UniProt Q8WU08); conditions: YANK1, 1 uM
T37 construct: purchased Ambit KINOMEscan (DiscoverX)
Procedure, shortened: as §1

[38] = target: T38, p38-delta (Homo sapiens, UniProt O15264); conditions: 1 uM
T38 construct: purchased Ambit KINOMEscan (DiscoverX)
Procedure, shortened: as §1

T38 sequence (O15264 whole entry): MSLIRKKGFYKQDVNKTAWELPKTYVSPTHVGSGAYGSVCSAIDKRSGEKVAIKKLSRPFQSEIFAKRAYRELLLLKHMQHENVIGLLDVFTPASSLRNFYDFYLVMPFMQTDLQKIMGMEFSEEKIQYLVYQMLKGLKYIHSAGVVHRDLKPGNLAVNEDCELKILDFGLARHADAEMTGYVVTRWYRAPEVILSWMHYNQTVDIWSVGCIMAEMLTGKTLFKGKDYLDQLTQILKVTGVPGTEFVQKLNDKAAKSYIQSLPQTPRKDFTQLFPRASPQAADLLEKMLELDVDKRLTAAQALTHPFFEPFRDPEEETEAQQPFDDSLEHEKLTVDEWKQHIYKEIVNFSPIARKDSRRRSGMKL
T25 sequence (P51957 whole entry): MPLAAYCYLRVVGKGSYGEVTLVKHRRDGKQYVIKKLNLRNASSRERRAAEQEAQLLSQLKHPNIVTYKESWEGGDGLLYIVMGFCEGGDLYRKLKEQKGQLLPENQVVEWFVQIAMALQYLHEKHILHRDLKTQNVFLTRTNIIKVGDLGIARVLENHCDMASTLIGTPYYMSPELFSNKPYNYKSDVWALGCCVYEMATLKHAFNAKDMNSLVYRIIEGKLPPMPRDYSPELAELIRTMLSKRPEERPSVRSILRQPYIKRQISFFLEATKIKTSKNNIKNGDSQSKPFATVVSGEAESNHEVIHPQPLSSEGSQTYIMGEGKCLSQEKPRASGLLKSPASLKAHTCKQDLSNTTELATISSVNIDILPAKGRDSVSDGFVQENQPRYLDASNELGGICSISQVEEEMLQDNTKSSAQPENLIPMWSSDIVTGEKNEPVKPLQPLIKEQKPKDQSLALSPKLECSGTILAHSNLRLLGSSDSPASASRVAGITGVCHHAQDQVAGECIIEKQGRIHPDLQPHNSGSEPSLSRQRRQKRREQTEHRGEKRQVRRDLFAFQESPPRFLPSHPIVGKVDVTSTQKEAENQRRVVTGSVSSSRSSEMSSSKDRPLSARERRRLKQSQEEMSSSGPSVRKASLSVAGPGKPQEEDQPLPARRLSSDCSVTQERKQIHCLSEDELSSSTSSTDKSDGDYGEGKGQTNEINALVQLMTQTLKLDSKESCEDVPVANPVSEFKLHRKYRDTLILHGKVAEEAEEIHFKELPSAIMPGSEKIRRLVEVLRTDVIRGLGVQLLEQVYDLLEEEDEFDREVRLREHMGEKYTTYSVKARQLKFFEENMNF
T10 sequence (P00533 25-1210 T790M): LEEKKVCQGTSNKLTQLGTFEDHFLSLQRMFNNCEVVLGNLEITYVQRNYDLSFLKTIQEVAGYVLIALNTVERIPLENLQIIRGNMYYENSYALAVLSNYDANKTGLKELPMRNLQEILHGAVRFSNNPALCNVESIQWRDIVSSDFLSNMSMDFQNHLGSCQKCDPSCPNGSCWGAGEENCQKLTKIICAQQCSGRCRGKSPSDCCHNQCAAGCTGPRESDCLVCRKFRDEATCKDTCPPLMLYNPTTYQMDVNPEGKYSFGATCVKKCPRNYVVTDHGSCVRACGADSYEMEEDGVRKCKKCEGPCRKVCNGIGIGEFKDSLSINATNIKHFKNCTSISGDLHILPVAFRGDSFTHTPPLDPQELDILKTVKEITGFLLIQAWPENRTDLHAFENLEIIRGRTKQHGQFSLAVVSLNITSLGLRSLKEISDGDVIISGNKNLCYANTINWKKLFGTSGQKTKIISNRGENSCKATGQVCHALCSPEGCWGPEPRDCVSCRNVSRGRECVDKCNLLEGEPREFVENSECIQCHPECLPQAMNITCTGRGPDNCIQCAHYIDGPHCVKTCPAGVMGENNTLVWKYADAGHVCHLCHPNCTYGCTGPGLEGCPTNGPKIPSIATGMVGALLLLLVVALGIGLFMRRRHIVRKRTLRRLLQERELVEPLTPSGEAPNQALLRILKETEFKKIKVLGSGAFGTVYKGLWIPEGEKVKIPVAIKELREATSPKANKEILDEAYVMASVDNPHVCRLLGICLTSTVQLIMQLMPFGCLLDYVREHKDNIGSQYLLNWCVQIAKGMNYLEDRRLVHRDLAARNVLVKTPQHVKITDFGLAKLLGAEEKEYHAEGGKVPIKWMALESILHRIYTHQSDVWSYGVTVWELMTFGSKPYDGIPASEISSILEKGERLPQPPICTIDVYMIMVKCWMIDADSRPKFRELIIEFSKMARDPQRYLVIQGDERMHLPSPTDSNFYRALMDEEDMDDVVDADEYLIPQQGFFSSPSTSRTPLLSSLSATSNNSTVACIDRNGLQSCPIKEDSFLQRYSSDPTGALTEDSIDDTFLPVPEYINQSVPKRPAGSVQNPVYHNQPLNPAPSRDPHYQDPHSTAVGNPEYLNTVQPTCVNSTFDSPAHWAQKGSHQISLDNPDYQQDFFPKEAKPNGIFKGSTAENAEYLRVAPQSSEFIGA
T4 sequence (Q13555 whole entry): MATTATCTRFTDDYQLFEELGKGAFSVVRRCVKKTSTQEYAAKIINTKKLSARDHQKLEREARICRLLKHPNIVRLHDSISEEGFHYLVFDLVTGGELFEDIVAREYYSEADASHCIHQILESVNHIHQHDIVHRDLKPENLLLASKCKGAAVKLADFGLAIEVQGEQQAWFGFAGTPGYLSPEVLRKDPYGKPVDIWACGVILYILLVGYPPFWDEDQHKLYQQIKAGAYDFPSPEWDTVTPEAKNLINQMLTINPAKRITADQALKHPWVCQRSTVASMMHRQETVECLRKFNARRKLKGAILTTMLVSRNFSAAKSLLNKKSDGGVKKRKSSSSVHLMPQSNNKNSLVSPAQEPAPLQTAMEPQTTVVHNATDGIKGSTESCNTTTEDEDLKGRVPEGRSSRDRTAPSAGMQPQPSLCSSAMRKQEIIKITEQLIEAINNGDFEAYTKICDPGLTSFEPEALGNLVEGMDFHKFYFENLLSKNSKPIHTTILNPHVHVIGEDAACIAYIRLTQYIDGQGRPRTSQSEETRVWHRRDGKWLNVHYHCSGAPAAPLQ
T1 sequence (P00519 whole entry F317L): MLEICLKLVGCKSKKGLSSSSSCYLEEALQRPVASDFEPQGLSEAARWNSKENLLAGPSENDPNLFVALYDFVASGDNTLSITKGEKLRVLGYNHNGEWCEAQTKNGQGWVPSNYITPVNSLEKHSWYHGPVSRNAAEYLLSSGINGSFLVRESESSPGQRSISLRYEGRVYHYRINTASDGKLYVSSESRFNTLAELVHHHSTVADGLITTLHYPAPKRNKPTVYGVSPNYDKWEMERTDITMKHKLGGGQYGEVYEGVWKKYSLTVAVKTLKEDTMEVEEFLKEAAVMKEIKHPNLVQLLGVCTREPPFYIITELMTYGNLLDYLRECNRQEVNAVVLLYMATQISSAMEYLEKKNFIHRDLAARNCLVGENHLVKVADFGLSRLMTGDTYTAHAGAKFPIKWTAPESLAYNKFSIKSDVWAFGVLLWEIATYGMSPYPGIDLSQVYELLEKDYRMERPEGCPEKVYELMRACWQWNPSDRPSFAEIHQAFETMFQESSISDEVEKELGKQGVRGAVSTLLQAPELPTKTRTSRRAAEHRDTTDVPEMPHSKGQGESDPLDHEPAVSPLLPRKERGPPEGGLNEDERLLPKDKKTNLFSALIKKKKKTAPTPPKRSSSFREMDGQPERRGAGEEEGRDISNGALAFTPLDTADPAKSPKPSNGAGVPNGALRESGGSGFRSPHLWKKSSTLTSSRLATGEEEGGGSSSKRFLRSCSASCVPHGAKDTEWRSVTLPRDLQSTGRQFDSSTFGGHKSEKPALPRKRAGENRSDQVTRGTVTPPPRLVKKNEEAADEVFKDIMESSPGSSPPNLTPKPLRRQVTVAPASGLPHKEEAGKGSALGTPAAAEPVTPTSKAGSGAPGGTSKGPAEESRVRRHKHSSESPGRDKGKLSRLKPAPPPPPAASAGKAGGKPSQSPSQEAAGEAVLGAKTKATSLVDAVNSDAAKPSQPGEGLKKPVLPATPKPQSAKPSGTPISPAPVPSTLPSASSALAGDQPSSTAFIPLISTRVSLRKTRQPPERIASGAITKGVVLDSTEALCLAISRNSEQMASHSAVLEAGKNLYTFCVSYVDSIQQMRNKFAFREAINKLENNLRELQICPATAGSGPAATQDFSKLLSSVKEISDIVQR
T23 sequence (Q8NG66 whole entry): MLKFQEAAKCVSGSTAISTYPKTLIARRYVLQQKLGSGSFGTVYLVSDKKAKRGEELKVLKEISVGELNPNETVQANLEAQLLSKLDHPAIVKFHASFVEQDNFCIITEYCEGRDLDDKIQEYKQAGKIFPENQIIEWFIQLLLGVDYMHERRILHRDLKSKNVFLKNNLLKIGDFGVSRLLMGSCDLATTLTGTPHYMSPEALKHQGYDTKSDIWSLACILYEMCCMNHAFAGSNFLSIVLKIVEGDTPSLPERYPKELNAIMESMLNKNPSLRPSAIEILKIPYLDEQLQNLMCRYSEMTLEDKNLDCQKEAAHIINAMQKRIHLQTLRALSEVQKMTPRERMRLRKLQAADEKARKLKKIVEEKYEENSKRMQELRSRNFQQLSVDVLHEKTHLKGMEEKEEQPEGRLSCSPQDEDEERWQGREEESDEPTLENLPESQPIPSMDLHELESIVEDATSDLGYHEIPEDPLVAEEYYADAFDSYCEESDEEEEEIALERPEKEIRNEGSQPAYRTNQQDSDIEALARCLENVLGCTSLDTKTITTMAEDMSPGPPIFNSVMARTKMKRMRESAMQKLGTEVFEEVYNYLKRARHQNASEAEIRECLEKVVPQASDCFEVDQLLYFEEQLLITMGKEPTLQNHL
T6 sequence (Q00535 whole entry): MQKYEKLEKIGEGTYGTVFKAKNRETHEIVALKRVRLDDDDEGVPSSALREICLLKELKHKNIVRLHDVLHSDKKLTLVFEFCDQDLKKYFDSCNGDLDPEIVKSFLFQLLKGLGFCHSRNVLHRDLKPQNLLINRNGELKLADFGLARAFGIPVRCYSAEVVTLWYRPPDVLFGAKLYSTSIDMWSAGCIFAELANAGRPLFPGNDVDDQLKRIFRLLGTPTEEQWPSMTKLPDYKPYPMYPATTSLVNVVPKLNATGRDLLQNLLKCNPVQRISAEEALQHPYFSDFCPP

## COc1ccccc1Nc1nc(-c2ccc(OC)c(OC)c2)cc2nccn12 [BAY derivative 6]
[1]
  % binding compared to no inhibitor control: 100%
[2]
  % binding compared to no inhibitor control: 43%
[3]
  % binding compared to no inhibitor control: 100%
[4]
  % binding compared to no inhibitor control: 100%
[5]
  % binding compared to no inhibitor control: 100%
[6]
  % binding compared to no inhibitor control: 100%
[7]
  % binding compared to no inhibitor control: 100%
[8]
  % binding compared to no inhibitor control: 100%
[9]
  % binding compared to no inhibitor control: 85%
[10]
  % binding compared to no inhibitor control: 48%
[11]
  % binding compared to no inhibitor control: 100%
[12]
  % binding compared to no inhibitor control: 52%
[13]
  % binding compared to no inhibitor control: 50%
[14]
  % binding compared to no inhibitor control: 100%
[15]
  % binding compared to no inhibitor control: 35%
[16]
  % binding compared to no inhibitor control: 61%
[17]
  % binding compared to no inhibitor control: 95%
[18]
  % binding compared to no inhibitor control: 100%
[19]
  % binding compared to no inhibitor control: 100%
[20]
  % binding compared to no inhibitor control: 100%
[21]
  % binding compared to no inhibitor control: 67%
[22]
  % binding compared to no inhibitor control: 100%
[23]
  % binding compared to no inhibitor control: 84%
[24]
  % binding compared to no inhibitor control: 100%
[25]
  % binding compared to no inhibitor control: 85%
[26]
  % binding compared to no inhibitor control: 67%
[27]
  % binding compared to no inhibitor control: 100%
[28]
  % binding compared to no inhibitor control: 71%
[29]
  % binding compared to no inhibitor control: 99%
[30]
  % binding compared to no inhibitor control: 100%
[31]
  % binding compared to no inhibitor control: 72%
[32]
  % binding compared to no inhibitor control: 96%
[33]
  % binding compared to no inhibitor control: 70%
[34]
  % binding compared to no inhibitor control: 84%
[35]
  % binding compared to no inhibitor control: 100%
[36]
  % binding compared to no inhibitor control: 98%
[37]
  % binding compared to no inhibitor control: 100%
[38]
  % binding compared to no inhibitor control: 100%
